# Test results published in patent US20180320177A1, “COMPOSITIONS AND METHODS FOR THE TREATMENT OF LIVER FIBROSIS” (UNIVERSITY OF CONNECTICUT, priority 2015, published 2018).
# Entries after “also recorded” stand apart in the source; their conditions may differ.
# Key:
# TIC cells [1] = assay: TIC cell proliferation (micrograph); format: cell-based; conditions: 5 μM ICM versus DMSO (FIG. 14E)
# Procedure: Cell culture, Cell transfection:HEK293T, Hela, Hep3B and MHCC97H cells were cultured and transfected using X-tremeGENE™ HP DNA transfection reagent (Roche) as described previously. CGR8 ES cells were cultured on 0.1% gelatin coated tissue-culture dish in knockout DMEM medium containing 15% ES qualified-Fetal Bovine Serum, 2 mM L-glutamin, 0.1 mM NEAA, 0.1 mM β-mercaptoethanol, 50 μg/ml penicillin-streptomycin and 10 ng/ml Leukemia inhibitory factor (LIF). TIC cells were cultured in DMEM-F12 medium containing Embryomax nucleotides, 2 mM L-glutamin, 0.1 mM NEAA, 20 ng/ml mouse EGF, 50 μg/ml penicillin-streptomycin and […].
# FIG. 14A is Left, Western blot of HMGB2 and SOX2 protein in HEK293T cells transfected with 0.5 μg […] expression plasmid and 0, 1 or 2 μg Flag-HMGB2 expression plasmid. Right, Western blot of HMGB2 and OCT4 protein in HEK293T cells transfected with 0.5 μg HA-OCT4 expression plasmid and 0, 1 or 2 μg Flag-HMGB2 expression plasmid. […] CGR8 cells were lysed, co-immunoprecipitated with OCT4 antibody, followed by Western blot with HMGB2 or OCT4 antibodies. FIG. 14 C is a luciferase reporter assay. HepG2 cells were infected with AAV8-GFP or AAV8-HMGB2 24 hrs before being transfected with 6*OS luciferase reporter and OCT4, SOX2 expression plasmids alone or in combination.
# [2] = test system: CCl4-induced liver fibrosis; assay: CCl4-induced liver fibrosis model in mice (Masson Trichrome, ALT, gross morphology); format: in vivo, mouse
# Procedure: Animal Care: All animal care and experimental procedures were approved by the Institutional Animal Care and Use Committee at the University of Connecticut. Shp^−/− mice were described previously. Hmgb2^−/− mice were obtained from Dr. Stella Tsirka at Stony Brook University. C57BL/6J mice were purchased from Jackson Laboratory. All mice were maintained on a 12-h light/dark cycle with free access to food and water unless otherwise indicated. For CCl4 treatment, CCl4 (Sigma) was dissolved in corn oil and administered to mice at a dose of 850 μl/kg BW by intraperitoneal injection (IP) twice a week for 6 or 10 weeks with or without ICM. Age-matched control mice were treated with a corn oil vehicle. For CCl4+ICM treatment, mice were treated with CCl4 for 2 weeks and then ICM (Department of Pharmaceutical Sciences at UConn) was dissolved in PEG (Sigma) and treated with mice (10 mg/kg) every day for 4 or 8 weeks in combination with CCl4. To induce overexpression of HMGB2 in liver, AAV8-Hmgb2 or a control AAV8-GFP was given to mice by tail vein injection at a dose of 5×10^10 GC. To knockdown HMGB2 in mouse livers, AAV-shHmgb2 or a control AAV-shGFP was delivered to mice at a dose of 2×10^10 GC by tail vein injection. One week later, mice injected with AAVs were treated with CCl4 or CCl4 +ICM as described above and sacrificed. Livers were removed and snap-frozen in liquid nitrogen for RNA and protein analysis. For the collection of mouse fetal livers, pregnant female mice were sacrificed at E12.5, E15, and E18.5 and livers were removed from the embryos. Additionally, post-natal mouse livers were harvested at postnatal day P1 and P60.
# Histology: Livers were fixed in 10% neutral buffered formalin and embedded in paraffin. Liver blocks were cut at 5 μm and the sections were stained with hematoxylin and eosin (H&E) and Masson's trichrome according to standard procedures.
# ALT and AST: Alanine transaminase (ALT) and Aspartate aminotransferase (AST) were measured by Infinity ALT (GPT) Liquid Stable Reagent and AST (GOT) Liquid Stable Reagent according to the manufacturer's instructions (Thermo Scientific).
# For CCl4 treatment, CCl4 (Sigma) was dissolved in corn oil and administered to mice at a dose of 850 µl/kg BW by intraperitoneal injection (IP) twice a week for 6 or 10 weeks with or without ICM. Age-matched control mice were treated with a corn oil vehicle. For CCl4+ICM treatment, mice were treated with CCl4 for 2 weeks and then ICM (Department of Pharmaceutical Sciences at UConn) was dissolved in PEG (Sigma) and treated with mice (10 mg/kg) every day for 4 or 8 weeks in combination with CCl4. To induced overexpression of HMGB2 in liver, AAV8-Hmgb2 or a control AAV8-GFP was given to mice by tail vein injection at a dose of 5×10^10 GC. […]
# TIC cells [3] = assay: TIC cell spheroid assay; format: cell-based; conditions: TIC cells with stable HMGB2 knockdown (FIG. 7F)
# Procedure: TIC cells were trypsinized into single cells and 1000 cells were suspended in serum free TIC medium with 1% methylcellulose supplemented with B27, 20 ng/ml EGF and 20 ng/ml FGF in each well of 96-well ultralow attachment plate.
molecule,measurement,setting,value
"CC1(C)Oc2cc(O)ccc2C2C1=CCn1c(=O)n(-c3ccccc3)c(=O)n12 (stereo not drawn) [ICM, inflachromene]",TIC cell proliferation,TIC cells [1],decreases TIC cell proliferation
same,liver gross morphology,[2]; ICM 10 mg/kg i.p. daily for 4 wks (FIG. 16B),improved liver gross morphology
same,plasma ALT levels,[2]; ICM 10 mg/kg i.p. daily for 4 wks (FIG. 16C),decreased plasma ALT levels
same,serum ALT,[2]; ICM (FIG. 5B),decreases
same,liver fibrosis,"[2]; ICM in PEG 10 mg/kg i.p. daily for 4 wks, Masson Trichrome staining",decreases; also recorded: diminished liver fibrosis
"shHMGB2: small hairpin RNA against HMGB2 (SEQ ID NO: 8), delivered by AAV or lentivirus (CCGGGCTCAACATTAGCTTCAGTATCTCGAGATACTGAAGCTAATGTTGAGCTTTTTG)",spheroid size,TIC cells [3],decreased spheroid size
